The values that follow come from article PMC5218480 (PLoS ONE, 2017).

This assay concerns MV-4-11 cells. Briefly: Gene expression microarray analysis (Affymetrix PrimeView) and GSEA. Also on record: RFU PODN (11730768_x_at) / Fold change /veh PODN (11730768_x_at) / RFU LINC00158 (11744669_a_at) / Fold change /veh LINC00158 (11744669_a_at) / RFU DUSP10 (11751237_a_at) / Fold change /veh DUSP10 (11751237_a_at) / RFU ID3 (11757404_x_at) / Fold change /veh ID3 (11757404_x_at) / RFU PLEKHG5 (11737974_s_at) / Fold change /veh PLEKHG5 (11737974_s_at) / RFU LRRC4B (11730491_at) / Fold change /veh LRRC4B (11730491_at) / RFU GIMAP4 (11747438_a_at) / Fold change /veh GIMAP4 (11747438_a_at) / RFU KRT8 (11758183_x_at) / Fold change /veh KRT8 (11758183_x_at) / RFU CNN1 (11734310_a_at) / Fold change /veh CNN1 (11734310_a_at) / RFU VPS37D (11726825_at) / Fold change /veh VPS37D (11726825_at) / RFU C10orf10 (11716522_x_at) / Fold change /veh C10orf10 (11716522_x_at) / RFU KIR2DL2 /// KIR2DL4 /// KIR2DL5A /// KIR2DL5B /// KIR2DS1 /// KIR2DS2 /// KIR2DS3 /// KIR2DS4 /// KIR3DL3 /// KIR3DL3 /// KIR3DS1 (11738374_at) / Fold change /veh KIR2DL2 /// KIR2DL4 /// KIR2DL5A /// KIR2DL5B /// KIR2DS1 /// KIR2DS2 /// KIR2DS3 /// KIR2DS4 /// KIR3DL3 /// KIR3DL3 /// KIR3DS1 (11738374_at) / RFU C1QL1 (11718748_at) / Fold change /veh C1QL1 (11718748_at) / RFU TMPRSS4 (11747572_a_at) / Fold change /veh TMPRSS4 (11747572_a_at) / RFU HAMP (11756126_x_at) / Fold change /veh HAMP (11756126_x_at) / RFU RNFT2 (11725882_a_at) / Fold change /veh RNFT2 (11725882_a_at) / RFU NR4A2 (11747474_a_at) / Fold change /veh NR4A2 (11747474_a_at) / RFU ABCC12 (11746883_a_at) / Fold change /veh ABCC12 (11746883_a_at) / RFU TMEM136 (11760407_x_at) / Fold change /veh TMEM136 (11760407_x_at) / RFU CLDN22 /// WWC2 (11732394_at) / Fold change /veh CLDN22 /// WWC2 (11732394_at) / RFU HLA-DPB1 (11760878_x_at) / Fold change /veh HLA-DPB1 (11760878_x_at) / RFU SPINT1 (11716480_a_at) / Fold change /veh SPINT1 (11716480_a_at) / RFU GAP43 (11754022_s_at) / Fold change /veh GAP43 (11754022_s_at) / RFU A4GNT (11735810_at) / Fold change /veh A4GNT (11735810_at) / RFU PRB3 (11715151_x_at) / Fold change /veh PRB3 (11715151_x_at) / RFU TUBB4B (11761932_at) / Fold change /veh TUBB4B (11761932_at) / RFU CAPN14 (11732068_a_at) / Fold change /veh CAPN14 (11732068_a_at) / RFU TMCC2 (11721928_a_at) / Fold change /veh TMCC2 (11721928_a_at) / RFU IRGQ (11745062_a_at) / Fold change /veh IRGQ (11745062_a_at) / RFU FAM174B (11720279_a_at) / Fold change /veh FAM174B (11720279_a_at) / RFU TMPRSS4 (11748680_a_at) / Fold change /veh TMPRSS4 (11748680_a_at) / RFU FAM212B (11763350_a_at) / Fold change /veh FAM212B (11763350_a_at) / RFU PLEKHG5 (11743358_a_at) / Fold change /veh PLEKHG5 (11743358_a_at) / RFU ZSCAN30 (11745921_a_at) / Fold change /veh ZSCAN30 (11745921_a_at) / RFU CMKLR1 (11741424_a_at) / Fold change /veh CMKLR1 (11741424_a_at) / RFU LOC101060620 /// MAPK8IP1 (11723275_at) / Fold change /veh LOC101060620 /// MAPK8IP1 (11723275_at) / RFU SPTSSB (11747773_x_at) / Fold change /veh SPTSSB (11747773_x_at) / RFU PRSS12 (11739890_at) / Fold change /veh PRSS12 (11739890_at) / RFU BIN1 (11741810_x_at) / Fold change /veh BIN1 (11741810_x_at) / RFU WNT11 (11732464_a_at) / Fold change /veh WNT11 (11732464_a_at) / RFU C10orf10 (11716521_a_at) / Fold change /veh C10orf10 (11716521_a_at) / RFU C5orf56 (11738089_at) / Fold change /veh C5orf56 (11738089_at) / RFU CYB561 (11721691_x_at) / Fold change /veh CYB561 (11721691_x_at) / RFU ANKRD19P (11752326_a_at) / Fold change /veh ANKRD19P (11752326_a_at) / RFU OR2T12 /// OR2T33 /// OR2T8 (11738714_s_at) / Fold change /veh OR2T12 /// OR2T33 /// OR2T8 (11738714_s_at) / RFU VCAN (11748164_a_at) / Fold change /veh VCAN (11748164_a_at) / RFU JSRP1 (11732532_at) / Fold change /veh JSRP1 (11732532_at) / RFU KRTAP10-11 (11738290_x_at) / Fold change /veh KRTAP10-11 (11738290_x_at) / RFU MYO3A (11730013_a_at) / Fold change /veh MYO3A (11730013_a_at) / RFU EBF3 (11725865_a_at) / Fold change /veh EBF3 (11725865_a_at) / RFU CAMK2N1 (11719241_x_at) / Fold change /veh CAMK2N1 (11719241_x_at) / RFU C5orf56 (11738088_a_at) / Fold change /veh C5orf56 (11738088_a_at) / RFU OLFML3 (11715873_a_at) / Fold change /veh OLFML3 (11715873_a_at) / RFU LOC100653217 /// NTM (11731650_a_at) / Fold change /veh LOC100653217 /// NTM (11731650_a_at) / RFU MAPK11 (11762145_a_at) / Fold change /veh MAPK11 (11762145_a_at) / RFU FIZ1 (11724087_x_at) / Fold change /veh FIZ1 (11724087_x_at) / RFU OASL (11726364_x_at) / Fold change /veh OASL (11726364_x_at) / RFU SOX15 (11748057_x_at) / Fold change /veh SOX15 (11748057_x_at) / RFU CD79A (11719716_a_at) / Fold change /veh CD79A (11719716_a_at) / RFU HIST1H1D (11736915_at) / Fold change /veh HIST1H1D (11736915_at) / RFU CASKIN2 (11723855_a_at) / Fold change /veh CASKIN2 (11723855_a_at) / RFU LOC730098 (11760151_x_at) / Fold change /veh LOC730098 (11760151_x_at) / RFU OR4N2 (11742367_at) / Fold change /veh OR4N2 (11742367_at) / RFU PRRT2 (11749266_a_at) / Fold change /veh PRRT2 (11749266_a_at) / RFU SNX32 (11753110_a_at) / Fold change /veh SNX32 (11753110_a_at) / RFU CDHR5 (11726645_a_at) / Fold change /veh CDHR5 (11726645_a_at) / RFU RCAN1 (11760418_a_at) / Fold change /veh RCAN1 (11760418_a_at) / RFU FAM167A (11723789_a_at) / Fold change /veh FAM167A (11723789_a_at) / RFU FAM26E (11764081_at) / Fold change /veh FAM26E (11764081_at) / RFU ISYNA1 (11749810_s_at) / Fold change /veh ISYNA1 (11749810_s_at) / RFU ACY1 (11761880_at) / Fold change /veh ACY1 (11761880_at) / RFU 11764098_at / Fold change /veh 11764098_at / RFU SAMD14 (11745864_x_at) / Fold change /veh SAMD14 (11745864_x_at) / RFU NPB (11741838_a_at) / Fold change /veh NPB (11741838_a_at) / RFU TMPRSS6 (11731388_a_at) / Fold change /veh TMPRSS6 (11731388_a_at) / RFU KRTAP10-2 (11738614_at) / Fold change /veh KRTAP10-2 (11738614_at) / RFU ARHGAP8 /// PRR5-ARHGAP8 (11727945_x_at) / Fold change /veh ARHGAP8 /// PRR5-ARHGAP8 (11727945_x_at) / RFU KRTAP5-7 /// NADSYN1 (11734609_at) / Fold change /veh KRTAP5-7 /// NADSYN1 (11734609_at) / RFU RASL12 (11751679_a_at) / Fold change /veh RASL12 (11751679_a_at) / RFU CDKN2B (11736163_a_at) / Fold change /veh CDKN2B (11736163_a_at) / RFU PRF1 (11729649_at) / Fold change /veh PRF1 (11729649_at) / RFU, ZNF638 /// ZNF638-IT1 / Fold change vs veh, ZNF638 /// ZNF638-IT1 / RFU, PANK3 / Fold change vs veh, PANK3 / RFU, SH3YL1 / Fold change vs veh, SH3YL1 / RFU, ZEB2 / Fold change vs veh, ZEB2 / RFU, NRIP1 / Fold change vs veh, NRIP1 / RFU, PTTG1IP / Fold change vs veh, PTTG1IP / RFU, CAPN2 / Fold change vs veh, CAPN2 / RFU, MED14 / Fold change vs veh, MED14 / RFU, SNORA58 / Fold change vs veh, SNORA58 / RFU, C1orf63 / Fold change vs veh, C1orf63 / RFU, LRRFIP1 / Fold change vs veh, LRRFIP1 / RFU, NDUFAF7 / Fold change vs veh, NDUFAF7 / RFU, SLC12A2 / Fold change vs veh, SLC12A2 / RFU, IBTK / Fold change vs veh, IBTK / RFU, ESF1 / Fold change vs veh, ESF1 / Fold change vs veh, TMEM50B / RFU, TAOK1 / Fold change vs veh, TAOK1 / RFU, ACBD3 / Fold change vs veh, ACBD3 / RFU, TMA16 / Fold change vs veh, TMA16 / RFU, RWDD3 / Fold change vs veh, RWDD3 / RFU, BCAT1 / Fold change vs veh, BCAT1 / RFU, EDEM3 / Fold change vs veh, EDEM3 / RFU, TMEM33 / Fold change vs veh, TMEM33 / RFU, WDR75 / Fold change vs veh, WDR75 / RFU, AHCTF1 / Fold change vs veh, AHCTF1 / RFU, TFRC / Fold change vs veh, TFRC / RFU, ZDHHC17 / Fold change vs veh, ZDHHC17 / RFU, NOM1 / Fold change vs veh, NOM1 / RFU, ARL8B / Fold change vs veh, ARL8B / RFU, ZBTB11 / Fold change vs veh, ZBTB11 / RFU, TAMM41 / Fold change vs veh, TAMM41 / RFU, KIAA1704 /// LOC100996395 / Fold change vs veh, KIAA1704 /// LOC100996395 / RFU, ING1 / Fold change vs veh, ING1 / RFU, TRMT61B / Fold change vs veh, TRMT61B / RFU, FUBP3 / Fold change vs veh, FUBP3 / RFU, TP53 / Fold change vs veh, TP53 / RFU, TNKS2 / Fold change vs veh, TNKS2 / RFU, ZFP14 / Fold change vs veh, ZFP14 / RFU, ACTR2 / Fold change vs veh, ACTR2 / RFU, PPP3R1 / Fold change vs veh, PPP3R1 / RFU, PIK3R1 / Fold change vs veh, PIK3R1 / RFU, HNRNPA1 / Fold change vs veh, HNRNPA1 / RFU, RNF170 / Fold change vs veh, RNF170 / RFU, ZNF28 / Fold change vs veh, ZNF28 / RFU, RNGTT / Fold change vs veh, RNGTT / RFU, OGT / Fold change vs veh, OGT / RFU, BRD1 / Fold change vs veh, BRD1 / RFU, MARS / Fold change vs veh, MARS / RFU, ZNF655 / Fold change vs veh, ZNF655 / RFU, FAHD1 / Fold change vs veh, FAHD1 / RFU, BDP1 / Fold change vs veh, BDP1 / RFU, LRRCC1 / Fold change vs veh, LRRCC1 / RFU, ARID1A / Fold change vs veh, ARID1A / RFU, ZNF146 / Fold change vs veh, ZNF146 / RFU, ZNF330 / Fold change vs veh, ZNF330 / RFU, GPN3 / Fold change vs veh, GPN3 / RFU, C9orf123 / Fold change vs veh, C9orf123 / RFU, N4BP2L2 / Fold change vs veh, N4BP2L2 / RFU, ARFIP1 / Fold change vs veh, ARFIP1 / RFU, FAM179B / Fold change vs veh, FAM179B / RFU, BCL10 / Fold change vs veh, BCL10 / RFU, UHRF1BP1L / Fold change vs veh, UHRF1BP1L / RFU, BET1 / Fold change vs veh, BET1 / RFU, CNOT2 / Fold change vs veh, CNOT2 / RFU, ZNF268 / Fold change vs veh, ZNF268 / Fold change vs veh, ZNF507 / RFU, DGCR2 / Fold change vs veh, DGCR2 / RFU, WDSUB1 / Fold change vs veh, WDSUB1 / Fold change vs veh, HSP90B1 /// MIR3652 / RFU, ADSS / Fold change vs veh, ADSS / RFU, GK / Fold change vs veh, GK / RFU, ZNF148 / Fold change vs veh, ZNF148 / RFU, TAF9 / Fold change vs veh, TAF9 / RFU, SLC1A5 / Fold change vs veh, SLC1A5 / RFU, SLMO2 / Fold change vs veh, SLMO2 / RFU, ABCC4 / Fold change vs veh, ABCC4 / RFU, LOC101060439 /// RAP1B / Fold change vs veh, LOC101060439 /// RAP1B / RFU, RFX7 / Fold change vs veh, RFX7 / RFU, GTPBP10 / Fold change vs veh, GTPBP10 / RFU, CNEP1R1 / Fold change vs veh, CNEP1R1 / RFU, BIVM-ERCC5 /// ERCC5 / Fold change vs veh, BIVM-ERCC5 /// ERCC5 / RFU, ILF3 / Fold change vs veh, ILF3 / RFU 11762660_at / Fold change /veh 11762660_at / RFU VCAN (11757783_s_at) / Fold change /veh VCAN (11757783_s_at) / RFU DDX43 (11728927_at) / Fold change /veh DDX43 (11728927_at) / RFU KRT8 (11758188_x_at) / Fold change /veh KRT8 (11758188_x_at) / RFU NKD1 (11759106_at) / Fold change /veh NKD1 (11759106_at) / RFU SRD5A1 (11742802_a_at) / Fold change /veh SRD5A1 (11742802_a_at) / RFU TPSAB1 /// TPSB2 (11721975_s_at) / Fold change /veh TPSAB1 /// TPSB2 (11721975_s_at) / RFU GSTM3 (11746129_a_at) / Fold change /veh GSTM3 (11746129_a_at) / RFU IL23R (11737362_x_at) / Fold change /veh IL23R (11737362_x_at) / RFU TMEM51 (11727254_a_at) / Fold change /veh TMEM51 (11727254_a_at) / RFU PIWIL2 (11732686_x_at) / Fold change /veh PIWIL2 (11732686_x_at) / RFU ORM1 (11744905_x_at) / Fold change /veh ORM1 (11744905_x_at) / RFU CCDC152 (11743942_at) / Fold change /veh CCDC152 (11743942_at) / RFU ECM1 (11717891_a_at) / Fold change /veh ECM1 (11717891_a_at) / RFU IL23R (11748794_a_at) / Fold change /veh IL23R (11748794_a_at) / RFU TNFAIP8L3 (11732012_x_at) / Fold change /veh TNFAIP8L3 (11732012_x_at) / RFU MBOAT4 (11741988_at) / Fold change /veh MBOAT4 (11741988_at) / RFU 11764193_at / Fold change /veh 11764193_at / RFU TMEM53 (11763286_at) / Fold change /veh TMEM53 (11763286_at) / RFU MAGEB2 (11727129_at) / Fold change /veh MAGEB2 (11727129_at) / RFU TMEM200A (11744735_a_at) / Fold change /veh TMEM200A (11744735_a_at) / RFU CCDC152 (11751479_a_at) / Fold change /veh CCDC152 (11751479_a_at) / RFU FAM211A (11726209_a_at) / Fold change /veh FAM211A (11726209_a_at) / RFU RGS16 (11746705_a_at) / Fold change /veh RGS16 (11746705_a_at) / RFU VCAN (11755009_s_at) / Fold change /veh VCAN (11755009_s_at) / RFU RHOB (11743442_s_at) / Fold change /veh RHOB (11743442_s_at) / RFU RGS16 (11720943_a_at) / Fold change /veh RGS16 (11720943_a_at) / RFU RGS16 (11720944_at) / Fold change /veh RGS16 (11720944_at) / RFU, VPS4B / Fold change vs veh, VPS4B / RFU, CREB1 / Fold change vs veh, CREB1 / RFU, DNAJC13 / Fold change vs veh, DNAJC13 / RFU, GNAQ / Fold change vs veh, GNAQ / RFU, CDK5R1 / Fold change vs veh, CDK5R1 / RFU, ZRANB3 / Fold change vs veh, ZRANB3 / RFU, CUL4A / Fold change vs veh, CUL4A / RFU, CCNY / Fold change vs veh, CCNY / RFU, UFL1 / Fold change vs veh, UFL1 / RFU, COG3 / Fold change vs veh, COG3 / RFU, DIAPH2 / Fold change vs veh, DIAPH2 / RFU, SKA2 / Fold change vs veh, SKA2 / RFU, AFF3 / Fold change vs veh, AFF3 / RFU, LMF1 / Fold change vs veh, LMF1 / RFU, IPO11 / Fold change vs veh, IPO11 / RFU, DFFB / Fold change vs veh, DFFB / RFU, FOXP1 / Fold change vs veh, FOXP1 / RFU, CARD8 / Fold change vs veh, CARD8 / RFU, STRN3 / Fold change vs veh, STRN3 / RFU, ADK / Fold change vs veh, ADK / RFU, RASSF2 / Fold change vs veh, RASSF2 / RFU, WIPF1 / Fold change vs veh, WIPF1 / RFU, LARP1B / Fold change vs veh, LARP1B / RFU, RASA1 / Fold change vs veh, RASA1 / RFU, RB1 / Fold change vs veh, RB1 / RFU, PPFIA1 / Fold change vs veh, PPFIA1 / RFU, MAT2A / Fold change vs veh, MAT2A / RFU, CCT5 / Fold change vs veh, CCT5 / RFU, WDR92 / Fold change vs veh, WDR92 / RFU, CUX1 / Fold change vs veh, CUX1 / RFU, TTC7A / Fold change vs veh, TTC7A / RFU, TMEM135 / Fold change vs veh, TMEM135 / RFU, DEPTOR / Fold change vs veh, DEPTOR / RFU, CPM / Fold change vs veh, CPM / RFU, DNAJB6 / Fold change vs veh, DNAJB6 / RFU, CACNA2D3 / Fold change vs veh, CACNA2D3 / RFU, DTX4 / Fold change vs veh, DTX4 / RFU, TFCP2 / Fold change vs veh, TFCP2 / RFU, GMCL1 /// GMCL1P1 / Fold change vs veh, GMCL1 /// GMCL1P1 / RFU, AEBP2 / Fold change vs veh, AEBP2 / RFU, SNHG1 /// SNORD22 /// SNORD25 /// SNORD26 /// SNORD27 /// SNORD28 /// SNORD29 /// SNORD31 / Fold change vs veh, SNHG1 /// SNORD22 /// SNORD25 /// SNORD26 /// SNORD27 /// SNORD28 /// SNORD29 /// SNORD31 / Fold change (Aza/veh), C12orf56 (ProbeSet 11735607_a_at) / Fold change (ACY-1035/veh), C12orf56 (ProbeSet 11735607_a_at) / Fold change (Aza/veh), FGFR1OP (ProbeSet 11751329_s_at) / Fold change (ACY-1035/veh), FGFR1OP (ProbeSet 11751329_s_at) / Fold change (Aza/veh), VPS36 (ProbeSet 11739960_a_at) / Fold change (ACY-1035/veh), VPS36 (ProbeSet 11739960_a_at) / RFU SYPL1 (11715823_x_at) / Fold change /veh SYPL1 (11715823_x_at) / RFU IGFBP7 (11715501_s_at) / Fold change /veh IGFBP7 (11715501_s_at) / RFU REEP3 (11722064_at) / Fold change /veh REEP3 (11722064_at) / RFU IGLL1 (11728026_x_at) / Fold change /veh IGLL1 (11728026_x_at): dose or concentration left out as unconfirmed. To be noted: ProbeSet 11731461_x_at; LIST D. Type of assay: cell-based, human.

`Nc1ncn([C@@H]2O[C@H](CO)[C@@H](O)[C@H]2O)c(=O)n1` [azacitidine]: the “RFU, CPM” value came to 125.18 RFU.
